# Earlier results as cited in patent publication US20250152987A1 (priority 2022, published 2025).
# Tested on: SARS CoV-2 virus
compound,measurement,value
CN(C)c1ccc2nc3ccc(=[N+](C)C)cc-3sc2c1 [methylene blue],inactivation of SARS CoV-2 virus,inactivation
